Results reported in patent US9453023B2, “Substituted phenyl cycloalkyl pyrrolidine (piperidine) spirolactams and amides, preparation and therapeutic use thereof” (SANOFI, priority 2010, dated 2016).
pKi: −log10 of the molar value. Where a name gives a salt, the structure may show the parent alone.

Biological target: rhesus (Macacca Mulatta) H3 receptor (Macaca mulatta, UniProt Q865E1)
Experiment: Rhesus H3 radioligand binding assay ([3H]-Methylhistamine, WGA SPA)
Design: species or system rhesus monkey (Macacca Mulatta)
Conditions: displacement of [3H]-Methylhistamine (2 nM) from rhesus H3 receptor membranes; Cheng-Prusoff
Protocol: (Genbank #AY231164). Stably transfected cultures were amplified in tissue culture flasks by standard tissue culture methods and induced to express rhesus H3 by exposure to 500 ng/ml tetracycline (Cellgro) for 24 hours. After induction, cells were dissociated from flasks utilizing Cell Stripper (Cellgro). Cells were centrifuged (1K×g, 5 min) and pellet frozen in an ethanol-dry ice bath to disrupt cell membranes. Frozen cell pellet was re-suspended in 5 mM HEPES (pH 7.4, Invitrogen) at 10 ml/1000 cm2 of harvested cells. The cell suspension was drawn through an 18 gauge needle (2-3×) followed by a 23 gauge needle (2-3×) to further disrupt cell membranes. The cell suspension was centrifuged (40K×g, 30 min). Cell membrane pellet was re-suspended in 5 mM HEPES (pH 7.4, Invitrogen) at a final protein concentration of 10 mg/ml. Rhesus H3 membranes were stored under liquid nitrogen prior to use in [3H]-Methylhistamine and GTPγS radioligand binding assays.
Rhesus H3 radioligand binding assay was performed using rhesus H3 receptor membranes (prepared as described above), [3H]-Methylhistamine (Perkin Elmer) and WGA SPA beads (wheat germ agglutinin scintillation proximity assay) beads (Amersham). The assay was performed in 96-well Opti-Plates (Packard). Each reaction contained 50 μl rhesus H3 membranes (20-30 μg total protein), 50 μl WGA SPA beads (0.1 μg) and 50 μl of 83 Ci/mmol [^3H]-Methylhistamine (final concentration 2 nM) and 50 μl of tested compound. The compounds of this invention and/or vehicle were diluted with binding buffer from 10 mM DMSO stocks. Assay plates were sealed with TopSeal (Perkin Elmer) and mixed on shaker (25° C., 1 hour). Assay plates were read on TopCount scintillation counter (Packard). Results were analyzed by Hill transformation and Ki values were determined by Cheng-Prusoff equation.

Chain of rhesus (Macacca Mulatta) H3 receptor (Q865E1 1-445): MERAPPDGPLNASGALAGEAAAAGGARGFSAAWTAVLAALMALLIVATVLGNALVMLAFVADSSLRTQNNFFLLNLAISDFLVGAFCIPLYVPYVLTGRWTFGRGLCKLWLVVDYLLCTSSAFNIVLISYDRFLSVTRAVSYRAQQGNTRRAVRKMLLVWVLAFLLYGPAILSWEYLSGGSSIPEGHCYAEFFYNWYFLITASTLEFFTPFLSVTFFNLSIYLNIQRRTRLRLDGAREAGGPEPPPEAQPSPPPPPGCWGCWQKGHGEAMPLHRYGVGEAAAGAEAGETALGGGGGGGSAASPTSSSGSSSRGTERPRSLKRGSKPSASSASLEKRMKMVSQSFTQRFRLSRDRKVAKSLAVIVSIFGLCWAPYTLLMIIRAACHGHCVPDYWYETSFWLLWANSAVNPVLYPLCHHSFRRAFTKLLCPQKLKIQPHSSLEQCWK

Structure (SMILES) | pKi
C[C@H]1CCCN1[C@H]1CC[C@H](c2ccc(N3CCC4(CCNCC4)C3=O)c(F)c2)CC1 [Example 17, 2-{2-Fluoro-4-[4-((S)-2-methyl-pyrrolidin-1-yl)-cyclohexyl]-phenyl}-2,8-diaza-spiro[4.5]decan-1-one hydrochloride] | 7.07
C[C@@H]1CCCN1[C@H]1CC[C@H](c2ccc(N3CCC4(CCOCC4)C3=O)cc2)CC1 [Example 10, 2-{4-[4-((R)-2-Methyl-pyrrolidin-1-yl)-cyclohexyl]-phenyl}-8-oxa-2-aza-spiro[4.5]decan-1-one] | 7.45
Cc1ccc(C(=O)Nc2ccc([C@H]3CCC(N4CCC[C@@H]4C)C3)cc2)cc1 (stereo partly drawn) [Example 34, 4-Methyl-N-{4-[(S)-3-((S)-2-methyl-pyrrolidin-1-yl)-cyclopentyl]-phenyl}-benzamide] | 7.01
C[C@H]1CCCN1C1CC[C@H](c2ccc(NC(=O)OCc3ccccc3)cc2)C1 (mixture of isomers) [Intermediate (13), {4-[(S)-3-((S)-2-Methyl-pyrrolidin-1-yl)-cyclopentyl]-phenyl}-carbamic acid benzyl ester] | 7.43
C[C@H]1CCCN1C1CC[C@H](c2ccc(NC(=O)c3ccccc3OC(F)(F)F)cc2)C1 (stereo partly drawn) [Example 35, N-{4-[(S)-3-((S)-2-Methyl-pyrrolidin-1-yl)-cyclopentyl]-phenyl}-2-trifluoromethoxy-benzamide] | 6.87
C[C@H]1CCCN1C1CC[C@H](c2ccc(NC(=O)Cc3ccccc3)cc2)C1 (stereo partly drawn) [Example 37, N-{4-[(S)-3-((S)-2-Methyl-pyrrolidin-1-yl)-cyclopentyl]-phenyl}-2-phenyl-acetamide] | 7.15
C[C@H]1CCCN1C1CC[C@H](c2ccc(NC(=O)c3ccc(Cl)cc3)cc2)C1 (stereo partly drawn) [Example 32, 4-Chloro-N-{4-[(S)-3-((S)-2-methyl-pyrrolidin-1-yl)-cyclopentyl]-phenyl}-benzamide] | 7.18
Cc1ccc(F)cc1C(=O)Nc1ccc([C@H]2CCC(N3CCC[C@@H]3C)C2)cc1 (stereo partly drawn) [Example 25, 5-Fluoro-2-methyl-N-{4-[(S)-3-((S)-2-methyl-pyrrolidin-1-yl)-cyclopentyl]-phenyl}-benzamide] | 7.34
CC1CCCN1C1CC[C@H](c2ccc(NC(=O)OCc3ccccc3)cc2)C1 (stereo partly drawn) [Intermediate (10), {4-[(S)-3-(2-Methyl-pyrrolidin-1-yl)-cyclopentyl]-phenyl}-carbamic acid benzyl ester] | 7.18
CC(C)(C)OC(=O)N1CCC2(CC1)CCN(c1ccc([C@H]3CC[C@H](N4CCC4)CC3)cc1F)C2=O [Example 15, 2-[4-(4-Azetidin-1-yl-cyclohexyl)-2-fluoro-phenyl]-1-oxo-2,8-diaza-spiro[4.5]decane-8-carboxylic acid tert-butyl ester] | 6.66
C[C@H]1CCCN1C1CC[C@H](c2ccc(NC(=O)c3cccs3)cc2)C1 (stereo partly drawn) [Example 23, Thiophene-2-carboxylic acid {4-[(S)-3-((S)-2-methyl-pyrrolidin-1-yl)-cyclopentyl]-phenyl}-amide] | 7.33
O=C1N(c2ccc([C@H]3CC[C@H](N4CCCC4)CC3)cc2)CCC12CCOCC2 [Example 9, 2-[4-(4-Pyrrolidin-1-yl-cyclohexyl)-phenyl]-8-oxa-2-aza-spiro[4.5]decan-1-one] | 6.95
C[C@H]1CCCN1C1CC[C@H](c2ccc(NC(=O)c3ccc(OC(F)(F)F)cc3)cc2)C1 (stereo partly drawn) [Example 36, N-{4-[(S)-3-((S)-2-Methyl-pyrrolidin-1-yl)-cyclopentyl]-phenyl}-4-trifluoromethoxy-benzamide] | 7.31
O=C1N(c2ccc([C@H]3CC[C@H](N4CCCC4)CC3)cc2F)CCC12CCNCC2 [Example 20, 2-[2-Fluoro-4-(4-pyrrolidin-1-yl-cyclohexyl)-phenyl]-2,8-diaza-spiro[4.5]decan-1-one hydrochloride] | 6.86
CC1CCCN1C1CC[C@H](c2ccc(N3CCC4(CCC(O)CC4)C3=O)cc2)C1 (some centres unmarked) [Example 4, 8-Hydroxy-2-{4-[3-(2-methyl-pyrrolidin-1-yl)-cyclopentyl]-phenyl}-2-aza-spiro[4.5]decan-1-one] | 7.12
C[C@H]1CCCCN1[C@H]1CC[C@H](c2ccc(N3CCC4(CCOCC4)C3=O)cc2)CC1 [Example 11, 2-{4-[4-((S)-2-Methyl-piperidin-1-yl)-cyclohexyl]-phenyl}-8-oxa-2-aza-spiro[4.5]decan-1-one] | 7.40
O=C1N(c2ccc([C@H]3CC[C@H](N4CCC4)CC3)cc2F)CCC12CCNCC2 [Example 19, 2-[4-(4-Azetidin-1-yl-cyclohexyl)-2-fluoro-phenyl]-2,8-diaza-spiro[4.5]decan-1-one hydrochloride] | 7.09

The remaining lines, values ahead:

pKi | Structure (SMILES)
8.21 | C[C@H]1CCCN1[C@H]1CC[C@H](c2ccc(N3CCC4(CCOCC4)C3=O)cc2)CC1 [Example 12, 2-{4-[4-((S)-2-Methyl-pyrrolidin-1-yl)-cyclohexyl]-phenyl}-8-oxa-2-aza-spiro[4.5]decan-1-one]
7.47 | C[C@H]1CCCN1C1CC[C@H](c2ccc(NS(=O)(=O)C3CC3)cc2)C1 (stereo partly drawn) [Example 27, Cyclopropanesulfonic acid {4-[(S)-3-((S)-2-methyl-pyrrolidin-1-yl)-cyclopentyl]-phenyl}-amide]
7.46 | C[C@H]1CCCN1C1CC[C@H](c2ccc(NC(=O)c3ccc(F)cc3)cc2)C1 (stereo partly drawn) [Example 31, 4-Fluoro-N-{4-[(S)-3-((S)-2-methyl-pyrrolidin-1-yl)-cyclopentyl]-phenyl}-benzamide]
8.22 | Cc1noc(C)c1C(=O)Nc1ccc([C@H]2CCC(N3CCC[C@@H]3C)C2)cc1 (stereo partly drawn) [Example 26, 3,5-Dimethyl-isoxazole-4-carboxylic acid {4-[(S)-3-((S)-2-methyl-pyrrolidin-1-yl)-cyclopentyl]-phenyl}-amide]
7.56 | CC1CCCN1C1CC[C@H](c2ccc(N3CCCC4(CCCC4)C3=O)cc2)C1 (some centres unmarked) [Example 7, 7-{4-[3-(2-Methyl-pyrrolidin-1-yl)-cyclopentyl]-phenyl}-7-aza-spiro[4.5]decan-6-one]
7.57 | CC1CCCN1C1CC[C@H](c2ccc(N3CCC4(CCN(C(=O)OC(C)(C)C)CC4)C3=O)cc2)C1 (some centres unmarked) [Example 6, 2-{4-[3-(2-Methyl-pyrrolidin-1-yl)-cyclopentyl]-phenyl}-1-oxo-2,8-diaza-spiro[4.5]decane-8-carboxylic acid tert-butyl ester]
7.89 | C[C@H]1CCCN1C1CC[C@H](c2ccc(N3CCC4(CCCCC4)C3=O)cc2)C1 (stereo partly drawn) [Example 2, 2-{4-[(S)-3-((S)-2-Methyl-pyrrolidin-1-yl)-cyclopentyl]-phenyl}-2-aza-spiro[4.5]decan-1-one]
7.92 | C[C@H]1CCCN1C1CC[C@H](c2ccc(N3CCC4(CCOCC4)C3=O)cc2)C1 (stereo partly drawn) [Example 1, 2-{4-[(S)-3-((S)-2-Methyl-pyrrolidin-1-yl)-cyclopentyl]-phenyl}-8-oxa-2-aza-spiro[4.5]decan-1-one]
7.47 | C[C@H]1CCCN1C1CC[C@H](c2ccc(NC(=O)C3CCOCC3)cc2)C1 (stereo partly drawn) [Example 28, Tetrahydro-pyran-4-carboxylic acid {4-[(S)-3-((S)-2-methyl-pyrrolidin-1-yl)-cyclopentyl]-phenyl}-amide]
7.91 | C[C@H]1CCCN1C1CC[C@H](c2ccc(NS(=O)(=O)c3ccc(F)cc3)cc2)C1 (stereo partly drawn) [Example 24, 4-Fluoro-N-{4-[(S)-3-((S)-2-methyl-pyrrolidin-1-yl)-cyclopentyl]-phenyl}-benzenesulfonamide]
8.16 | C[C@H]1CCCN1C1CC=C(c2ccc(NC(=O)OCc3ccccc3)c(F)c2)CC1 (stereo partly drawn) [Example 21, {2-Fluoro-4-[4-((S)-2-methyl-pyrrolidin-1-yl)-cyclohex-1-enyl]-phenyl}-carbamic acid benzyl ester]
8.22 | CC1CCCN1C1CC[C@H](c2ccc(N3CCCC4(CCNCC4)C3=O)cc2)C1 (some centres unmarked) [Example 8, 2-{4-[3-(2-Methyl-pyrrolidin-1-yl)-cyclopentyl]-phenyl}-2,9-diaza-spiro[5.5]undecan-1-one hydrochloride]
7.56 | C[C@H]1CCCN1C1CC[C@H](c2ccc(NS(=O)(=O)c3ccc(F)c(F)c3)cc2)C1 (stereo partly drawn) [Example 30, 3,4-Difluoro-N-{4-[(S)-3-((S)-2-methyl-pyrrolidin-1-yl)-cyclopentyl]-phenyl}-benzenesulfonamide]
7.75 | CC1CCCN1C1CC[C@H](c2ccc(N3CCCC4(CCN(C(=O)OC(C)(C)C)CC4)C3=O)cc2)C1 (some centres unmarked) [Example 3, 2-{4-[3-(2-Methyl-pyrrolidin-1-yl)-cyclopentyl]-phenyl}-1-oxo-2,9-diaza-spiro[5.5]undecane-9-carboxylic acid tert-butyl ester]
7.95 | C[C@@H]1CCCN1[C@H]1CC[C@H](c2ccc(N3CCC4(CCNCC4)C3=O)c(F)c2)CC1 [Example 18, 2-{2-Fluoro-4-[4-((R)-2-methyl-pyrrolidin-1-yl)-cyclohexyl]-phenyl}-2,8-diaza-spiro[4.5]decan-1-one hydrochloride]
